{"source": "patent US11499978B2", "about": "“Method for measuring quality of therapeutic cell through real-time glutathione measurement” (CELL2IN, INC., priority 2017, dated 2022)", "key": {"hUC-MSCs [1]": {"test_system": "hUC-MSCs", "assay": "FreSH-Tracer-based glutathione regeneration capacity (GRC) in hUC-MSCs", "set-up": "species or system human", "settings": "hUC-MSCs subcultured three times with AA2G 250 μg/mL; low concentration of diamide; compared with naive cell group", "description": "(§1) GRC refers to a value obtained by real-time monitoring of FR after living cells are treated with an oxidizing agent, as calculated by dividing a value obtained by subtracting AUC of a group treated with 0.1-100 mM N-ethylmaleimide (NEM) from FR AUC of an oxidizing agent (diamide, H2O2, etc.)-treated group by a value obtained by subtracting the AUC of NEM-treated group from AUC of the untreated control, and multiplying the resulting value by 100. The FR of the NEM-treated group is a value for increasing the sensitivity of a GRC value by treating it as the blank value of the FR of the cells of interest. […] To remove the MitoFreSH-Tracer from the medium before measurement, the medium was exchanged with fresh 10 mM HEPES-containing HBSS(Hanks' Balanced Salt Solution), and a fluorescence image was obtained using a confocal imaging system, Operetta. By comparing GSH levels quantified from control cells not treated with RSL3 or control cells before treated with RSL3, the distribution of GSH expression-changed cells was calculated. Based on the point where the distribution histogram is divided into two peaks, the cells were divided into GSH^High cells (right peak) and GSH^Low cells (left peak), and then a ratio of corresponding cells was expressed as a percentage (%). […]"}, "T cells": {"test_system": "T cells", "assay": "Anti-inflammatory effect of treated hUC-MSCs on T cells", "assay_type": "cell-based", "settings": "hUC-MSCs treated with 125 or 250 μg/mL AA2G for three days", "description": "The inventors observed an effect of the material on stem cells by treating each stem cells with a material for enhancing a glutathione evaluation parameter. When hUC-MSCs were subcultured in a L-AA2G-containing medium, CFU-F, migration capacity, and an anti-inflammatory effect were observed. A CFU-F assay (n=3) was performed by treating hUC-MSCs with 125 or 250 μg/mL of AA2G for three days. As shown in FIGS. 16A and 16B, it was confirmed that, when AA2G was treated, CFU-F increased. In addition, as hUC-MSCs were treated with 125 or 250 μg/mL of AA2G for three days, PDGF-AA-induced migration capacity (n=3) was analyzed. As shown in FIGS. 17A and 17B, it was confirmed that the migration capacity was increased by AA2G treatment. In addition, the reduction in T cell proliferation, the reduction in T cell differentiation, and the promotion of Treg cell differentiation were observed by treating hUC-MSCs with 125 or 250 μg/mL of AA2G for three days.\nIn addition, hUC-MSCs were cultured with ferrostatin-1 (0.2, 1, 2 and 4 μM) and liproxstatin-1 (0.1, 0.5, 1 and 2 μM), which control a glutathione level in cells by inhibiting lipid oxidation. […] Meanwhile, the hUC-MSCs were treated with 1 μM ferrostatin-1 for 24 hours, 0.2 mM GGC for 2 hours, and 2 mM GSH-EE for 2 hours. As a result, the reduction in T cell proliferation ability and the reduction in T cell differentiation capacity were observed, and promotion of Treg cell differentiation was observed."}, "hUC-MSCs [2]": {"test_system": "hUC-MSCs", "assay": "Oxidative stress resistance capacity (ORC) analysis in hUC-MSCs with RSL3", "assay_type": "cell-based, human", "settings": "hUC-MSCs subcultured three times with AA2G 250 μg/mL; compared with naive cell group (NC)", "description": "as §1"}}}
{"compound": "O=C1O[C@H]([C@@H](O)CO)C(O)=C1O[C@H]1O[C@H](CO)[C@@H](O)[C@H](O)[C@H]1O", "note": "[AA2G, ascorbic acid 2-glucoside]", "values": [{"measurement": "FreSH-Tracer-based GRC", "setting": "hUC-MSCs [1]", "result": "increased"}, {"measurement": "T cell differentiation", "setting": "T cells", "result": "reduction"}, {"measurement": "T cell proliferation", "setting": "T cells", "result": "reduction"}, {"measurement": "Treg cell differentiation", "setting": "T cells", "result": "promotion"}, {"measurement": "anti-inflammatory effect of stem cells", "setting": "T cells", "result": "exhibited"}, {"measurement": "FreSH-Tracer-based ORC (GSH^High cells)", "setting": "hUC-MSCs [2]", "result": "higher"}]}
